How the values were obtained:
[1] = Thermal stability testing at 60° C. of ingredient and 1% premix (HPLC); assay type: physicochemical
Method: (§1) Preparation of a sample of 1% premix of an ingredient: 1 g of an ingredient was respectively weighed out and evenly mixed with 99 g of corncob meal in a mixer to give a sample of 1% premix of an ingredient for testing.
Thermal stability testing at 60° C.: The samples of an ingredient and 1% premix thereof were respectively spread in petri dishes to form thin layers of <5 mm, and kept at 60° C. Two replications for a sample were taken in parallel on day 5 and day 10 for HPLC analysis.
(§2) 25.0 mg of an ingredient was accurately weighed out and dissolved in an appropriate amount of methanol by ultrasonication. The solution was then transferred to a volumetric flask and diluted to 25 mL with methanol to give a stock solution. The samples from the stock solution were diluted with methanol respectively to a concentration of 100 ppm, 500 ppm, and 1000 ppm of work solution, and then the working solutions were filtered by 0.22 μm organic membranes. Between the concentration of a sample and the response value of HPLC peak area thereof, the linearity was adjusted and detected to give a standard curve.
(§3) 2.3: Preparation of Sample Solution 25.0 mg of an ingredient and 2.0000 g of a sample of 1% premix thereof were respectively accurately weighed out, and dissolved in 25 mL of methanol by ultrasonication for 10 minutes. The resulting solutions were filtered by organic membranes and then analyzed by HPLC. 2.4: Testing Conditions for HPLC • Column: Symmetry Cis column (Waters; 250 mm*4.6 mm, 5 μm). • Mobile phase: 0.02% phosphoric acid:methanol=5:95 (v:v). • Wavelength: 235 nm. • Temperature of the Column: 25° C. • Injection volume: 10 μL. • Flow rate: 1 mL/min. 3: Results

[2] = system: Duroc×Landrace×Yorkshire cross-bred bacon-type piglets; assay: Effect on the production performance of hogs (14-day feeding trial); assay type: in vivo; settings: 14 days, piglets
Text: 480 67-day-old Duroc×Landrace×Yorkshire cross-bred bacon-type piglets with similar body weight, were randomly divided into 16 groups, with 3 replications per group, 10 piglets per replication and equal amounts of males and females. The pig pen and tools were sterilized before the trial. In the trial, the piglets were kept in separate regions in the same pig pen under the same feeding and management conditions, were given a free hand with the feed and the water, and were fed twice a day. The groups were known as control group (group 1) and test groups 2 to 16. The piglets of the control group were fed with basal formula feed only, while those of the test groups 2 to 16 were respectively fed with basal formula feed mixed with different additives, wherein the active ingredient of the additives was a hexahydro-β-acid compound or a prodrug of a hexahydro-β-acid compound provide herein, and the content thereof in the feed was 5 or 25 ppm as shown in Table 4.
The trial lasted for 14 days. During the trial, each test group was not fed with other antioxidants or growth enhancers. On the 14th day, each test group was fed with no feed but water for 12 hours, and the piglets of each replication as one unit were weighed to calculate the average daily feed intake (ADFI, g/d per piglet), the average daily weight gain (ADG, g/d per piglet), and the feed conversion ratio (FCR). Average daily feed intake=(Total weight of provided feed−Weight of residual feed)/(Days of the trial×Number of piglets in each replicate) Average daily weight gain=(final average body weight−initial average body weight)/Days of the trial Feed conversion ratio=average daily feed intake/average daily weight gain

[3] = Photostability testing under illumination of 4500 Lx of ingredient and 1% premix (HPLC); assay type: physicochemical; settings: for Residual amount of active ingredient: 4500 Lx
Text: as §1
Photostability testing: The samples of an ingredient and 1% premix thereof were respectively spread in petri dishes to form thin layers of <5 mm, and kept under an illumination of 4500 Lx. Three replications for a sample were sampled in parallel on day 5 and day 10 for HPLC analysis.
as §2, §3

yellow broilers = assay: Effect on the production performance of broilers (30-day feeding trial); assay type: in vivo; settings: for ADFI (average daily feed intake) / ADG (average daily weight gain) / FCR (feed conversion ratio): 30 days, broilers; for effects on the production performance of broilers compared with hexahydro-colupulone (in words): in vivo
Text: Single-factor was used to conduct the trial. 540 1-day-old yellow broilers with a similar average body weight of 50 g were randomly divided into 6 groups, with 6 replicates per group, equal amount of males and females and 15 yellow broilers per replicate. The chicken house and tools were sterilized before the trial. During the trial, the broilers were kept in separate regions in the same chicken house under the same feeding and management conditions. During the trial, each test group was fed with basal formula feed consisting of corn and soybean and not fed with other antioxidants or growth enhancers. The groups were known as control group (group 1) and test groups 2 to 6, wherein the control group was fed with basal formula feed only, while the test groups 2 to 6 were fed with basal formula feeds respectively mixed with hexahydro-colupulone, hexahydro-colupulone mono-acetate, or hexahydro-colupulone mono-butyrate, as shown in Table 5.
The trial lasted for 30 days. The broilers were given free hand with feed and water and were fed twice a day. To calculate the average daily feed intake (ADFI, g/d per broiler), the average daily weigh gain (ADG, g/d per broiler) and the feed conversion ratio (FCR), the 31 days old broilers (12 hours without feed but water) of each replication as one unit were weighed, and the amount of the feed consumed thereby was counted. Feed conversion ratio (FCR)=average daily feed intake/average daily weight gain

[4] = 1% Premix of an ingredient (corncob meal), Day 5
[5] = 1% Premix of an ingredient (corncob meal), Day 10

Row | Structure (SMILES) | Residual amount of active ingredient [1, 4] [%] | Residual amount of active ingredient [1, 5] [%] | Residual amount of active ingredient ([1]; Ingredient, Day 5) [%] | Residual amount of active ingredient ([1]; Ingredient, Day 10) [%] | ADFI (average daily feed intake) ([2]; 5 ppm in feed) [g/d per piglet] | ADG (average daily weight gain) ([2]; 5 ppm in feed) [g/d per piglet] | FCR (feed conversion ratio) ([2]; 5 ppm in feed) | ADFI (average daily feed intake) ([2]; 25 ppm in feed) [g/d per piglet] | ADG (average daily weight gain) ([2]; 25 ppm in feed) [g/d per piglet] | FCR (feed conversion ratio) ([2]; 25 ppm in feed) | Residual amount of active ingredient [3, 4] [%] | Residual amount of active ingredient [3, 5] [%] | Residual amount of active ingredient ([3]; Ingredient, Day 5) [%] | Residual amount of active ingredient ([3]; Ingredient, Day 10) [%] | ADFI (average daily feed intake) (yellow broilers; 2 ppm in feed) [g/d per broiler] | ADG (average daily weight gain) (yellow broilers; 2 ppm in feed) [g/d per broiler] | FCR (feed conversion ratio) (yellow broilers; 2 ppm in feed) | ADFI (average daily feed intake) (yellow broilers; 20 ppm in feed) [g/d per broiler] | ADG (average daily weight gain) (yellow broilers; 20 ppm in feed) [g/d per broiler] | FCR (feed conversion ratio) (yellow broilers; 20 ppm in feed) | further results
1 | CC(=O)OC1=C(CCC(C)C)C(=O)C(CCC(C)C)(CCC(C)C)C(O)=C1C(=O)C(C)C [hexahydro-colupulone mono-acetate, Hexahydro-Colupulone Mono-Acetate] | 99.40 | 98.68 | 99.69 | 99.44 | 860 | 368 | 2.340 | 960 | 435 | 2.208 | 99.28 | 98.82 | 98.97 | 98.31 | 49.13 | 25.67 | 2.02 | 50.06 | 27.36 | 1.95 | effects on the production performance of broilers compared with hexahydro-colupulone (in words) (yellow broilers): equivalent
2 | CCCC(=O)OC1=C(CCC(C)C)C(=O)C(CCC(C)C)(CCC(C)C)C(O)=C1C(=O)C(C)C [hexahydro-colupulone mono-butyrate] | 98.21 | 97.57 | 99.76 | 99.64 | 991 | 447 | 2.217 | 973 | 441 | 2.205 | 99.14 | 98.08 | 99.99 | 99.10 | 48.32 | 24.65 | 1.96 | 49.95 | 25.88 | 1.93 | effects on the production performance of broilers compared with hexahydro-colupulone (in words) (yellow broilers): equivalent
3 | CC(C)CCC1=C(O)C(C(=O)C(C)C)=C(O)C(CCC(C)C)(CCC(C)C)C1=O [hexahydro-colupulone, reference compound] | 97.02 | 93.56 | 99.76 | 99.10 |  |  |  | 894 | 403 | 2.218 | 90.11 | 83.62 | 92.71 | 85.66 |  |  |  | 49.68 | 25.19 | 1.97 | change of active ingredient ([1]; active ingredient of 1% premix, 10-day testing period): more than 5%; change of active ingredient ([3]; active ingredient of 1% premix, photostability testing, day 10): more than 15%

Reference: patent US12673915B2, “Precursor compound of hexahydro-beta-acid component compound, feed composition and use thereof” (WISORIG TECHNOLOGIES PTE. LIMITED, priority 2020, dated 2026)
